What is called IC50 is the midpoint of a concentration-inhibition curve.

This passage reports IC50 results from patent US12156880B2, “Heterocyclic RIP1 kinase inhibitors” (Rigel Pharmaceuticals, Inc., priority 2021, dated 2024).

Like-named read-outs stand apart in the source and are kept apart here.

One experiment has as its system U937 cells. The experiment can be described thus: U937 cell necroptosis assay (TNFa + zVAD, CellTiter-Glo recovery). Particulars: Homo sapiens, U-937, 18 h, TNFa 2 ng/mL + zVAD-fmk, read-out: U937 Zvad TNF CTG Recovery, U937, TNFa + zVAD (IC50). Type of experiment: cell-based. In a few lines:
(§1)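 Human U937 (50K/well, 60 uM zVAD-fmk medium, plated same day) or murine L929 (10K/well, plated 18 h, then 40 uM zVAD-fmk medium) were grown in RPMI with 10% FBS. Both were pretreated with compound for 1 h at 37 °C before TNFa at 2 ng/mL final. Viability was read by CellTiter-Glo luminescence after 18 h.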

A further experiment deals with T1, RIPK1 (Homo sapiens, UniProt Q13546).
T1 sequence (Q13546 1-671): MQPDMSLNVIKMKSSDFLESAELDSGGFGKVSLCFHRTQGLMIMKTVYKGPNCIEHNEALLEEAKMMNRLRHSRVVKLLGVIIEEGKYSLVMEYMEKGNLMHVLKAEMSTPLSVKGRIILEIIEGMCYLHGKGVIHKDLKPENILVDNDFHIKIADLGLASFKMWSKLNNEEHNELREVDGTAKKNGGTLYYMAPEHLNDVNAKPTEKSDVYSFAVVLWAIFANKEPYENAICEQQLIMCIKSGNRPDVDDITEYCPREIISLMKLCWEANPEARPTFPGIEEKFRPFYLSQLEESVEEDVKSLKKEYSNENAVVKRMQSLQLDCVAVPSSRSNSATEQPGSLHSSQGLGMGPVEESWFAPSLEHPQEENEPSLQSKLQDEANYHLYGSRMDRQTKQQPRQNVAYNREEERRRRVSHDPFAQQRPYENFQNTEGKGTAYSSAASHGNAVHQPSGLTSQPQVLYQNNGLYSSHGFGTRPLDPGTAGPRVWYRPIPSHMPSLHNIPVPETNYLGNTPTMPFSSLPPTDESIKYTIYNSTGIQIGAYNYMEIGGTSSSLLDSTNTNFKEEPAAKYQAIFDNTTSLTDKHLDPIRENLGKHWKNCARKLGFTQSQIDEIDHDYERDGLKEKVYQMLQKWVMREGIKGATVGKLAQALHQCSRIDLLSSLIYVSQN
Put plainly: RIPK1 ADP-Glo biochemical kinase assay. In a few lines:
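RIPK1 at 31 ng/well in Tris pH 7.4 buffer with MgCl2, BSA, DTT and MnCl2, reacted with compounds (duplicate) for 30 min at 30 °C. ADP formed detected by ADP-Glo: 40 min stop/depletion, then 30 min detection reagent at room temperature; luminescence read.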

A further experiment relates to L929 cells. The experiment can be described thus: L929 cell necroptosis assay (TNFa + zVAD, CellTiter-Glo recovery). As to conditions: Mus musculus, L929, 18 h, TNFa 2 ng/mL + zVAD-fmk, read-out: L929-CTG-recovery, L929, TNFa + zVAD (IC50). It is filed as cell-based, murine. The gist of the method: as §1
A general note: Cellular ATP, detected with luciferase, serves as a proxy for viable cell number.

[1] abbreviates: read-out: RIPK1 ADP-Glo Kinase (IC50).

`CN1C(=O)[C@@H](NC(=O)c2cc(Cc3cccc(F)n3)ccn2)COc2ccc(C#CC(C)(C)C)cc21` [I-97, (S)—N-(7-(3,3-dimethylbut-1-yn-1-yl)-5-methyl-4-oxo-2,3,4,5-tetrahydrobenzo[b][1,4]oxazepin-3-yl)-4-((6-fluoropyridin-2-yl)methyl)picolinamide]: the concentration for half-maximal inhibition (IC50) is 16.4 nM in the experiment with U937 cells, 83.2 nM on RIPK1 (setting [1]) and 386 nM in the experiment on L929 cells.
For `CN1C(=O)[C@@H](NC(=O)c2cc(Cc3csc(C(F)(F)F)n3)ccn2)COc2ccc(C#CC(C)(C)O)cc21` [I-123, (S)—N-(7-(3-hydroxy-3-methylbut-1-yn-1-yl)-5-methyl-4-oxo-2,3,4,5-tetrahydrobenzo[b][1,4]oxazepin-3-yl)-4-((2-(trifluoromethyl)thiazol-4-yl)methyl)picolinamide], the concentration for half-maximal inhibition (IC50) in the experiment on U937 cells came out at 97.8 nM; on RIPK1 (setting [1]) it was 20 nM; in the experiment on L929 cells, 853 nM.
As for `CN1C(=O)[C@@H](NC(=O)c2cc(Cc3cccnc3F)ccn2)COc2ccc(C#CC(C)(C)O)cc21` [I-27, (S)-4-((2-fluoropyridin-3-yl)methyl)-N-(7-(3-hydroxy-3-methylbut-1-yn-1-yl)-5-methyl-4-oxo-2,3,4,5-tetrahydrobenzo[b][1,4]oxazepin-3-yl)picolinamide], the IC50 came to 9.7 nM with U937 cells, 19.3 nM at RIPK1 (setting [1]) and 622 nM in the experiment on L929 cells.
`CN1C(=O)[C@@H](NC(=O)c2cc(Cc3cccc(F)n3)ccn2)COc2ccc(C#CC3COC3)cc21` [I-84, (S)-4-((6-fluoropyridin-2-yl)methyl)-N-(5-methyl-7-(oxetan-3-ylethynyl)-4-oxo-2,3,4,5-tetrahydrobenzo[b][1,4]oxazepin-3-yl)picolinamide]: the IC50 came out at 9.4 nM with U937 cells, 19.3 nM at RIPK1 (setting [1]) and 768 nM in the experiment on L929 cells.
`CN1C(=O)[C@@H](NC(=O)c2cc(Cc3cccnc3F)ccn2)COc2ccc(C#CC3(O)COC3)cc21` [I-26, (S)-4-((2-fluoropyridin-3-yl)methyl)-N-(7-((3-hydroxyoxetan-3-yl)ethynyl)-5-methyl-4-oxo-2,3,4,5-tetrahydrobenzo[b][1,4]oxazepin-3-yl)picolinamide]: the figures for the IC50 in the experiment with U937 cells, on RIPK1 (setting [1]) and in the experiment with L929 cells were 5.3 nM, 35.5 nM and 407 nM, respectively.
For `CN1C(=O)[C@@H](NC(=O)n2cc(Cc3cccc(F)n3)cn2)COc2ccc(C#CC(C)(C)CO)cc21` [I-37, (S)-4-((6-Fluoropyridin-2-yl)methyl)-N-(7-(4-hydroxy-3,3-dimethylbut-1-yn-1-yl)-5-methyl-4-oxo-2,3,4,5-tetrahydrobenzo[b][1,4]oxazepin-3-yl)-1H-pyrazole-1-carboxamide], in that order: 4 nM, 16.2 nM and 697 nM.
For the molecule `CN1C(=O)[C@@H](NC(=O)c2cc(Oc3cccnc3F)ccn2)COc2ccc(C#CC(C)(C)C)cc21` [I-95, (S)—N-(7-(3,3-dimethylbut-1-yn-1-yl)-5-methyl-4-oxo-2,3,4,5-tetrahydrobenzo[b][1,4]oxazepin-3-yl)-4-((2-fluoropyridin-3-yl)oxy)picolinamide], the values for the 50% inhibitory concentration (IC50) in the experiment on U937 cells, at RIPK1 (setting [1]) and with L929 cells were 3.2 nM, 63.4 nM and 354 nM, respectively.
For `CN1C(=O)[C@@H](NC(=O)n2cc(Cc3cccc(F)n3)cn2)CCc2c(F)cc(C#CC(C)(C)CO)cc21` [I-122, (S)—N-(6-Fluoro-8-(4-hydroxy-3,3-dimethylbut-1-yn-1-yl)-1-methyl-2-oxo-2,3,4,5-tetrahydro-1H-benzo[b]azepin-3-yl)-4-((6-fluoropyridin-2-yl)methyl)-1H-pyrazole-1-carboxamide], in that order: 97.4 nM, 32.5 nM and 8670 nM.
As to `CN1C(=O)[C@@H](NC(=O)n2cc(Cc3cccc(F)n3)cn2)COc2ccc(C#CC3CCOCC3)cc21` [I-34, (S)-4-((6-Fluoropyridin-2-yl)methyl)-N-(5-methyl-4-oxo-7-((tetrahydro-2H-pyran-4-yl)ethynyl)-2,3,4,5-tetrahydrobenzo[b][1,4]oxazepin-3-yl)-1H-pyrazole-1-carboxamide], the 50% inhibitory concentration (IC50) is 1.3 nM in the experiment on U937 cells, 15.3 nM at RIPK1 (setting [1]) and 68.1 nM with L929 cells.
Take `Cc1cccc(Cc2cnn(C(=O)N[C@H]3COc4ccc(C#CC5(O)COC5)cc4N(C)C3=O)c2)n1` [I-103, (S)—N-(7-((3-Hydroxyoxetan-3-yl)ethynyl)-5-methyl-4-oxo-2,3,4,5-tetrahydrobenzo[b][1,4]oxazepin-3-yl)-4-((6-methylpyridin-2-yl)methyl)-1H-pyrazole-1-carboxamide]: the results for the IC50 in the experiment on U937 cells, at RIPK1 (setting [1]) and in the experiment on L929 cells were 105 nM, 15.4 nM and 1290 nM, respectively.
Regarding `CN1C(=O)[C@@H](NC(=O)c2cc(Oc3cccnc3F)ccn2)COc2ccc(C#CC3(O)COC3)cc21` [I-56, (S)-4-((2-fluoropyridin-3-yl)oxy)-N-(7-((3-hydroxyoxetan-3-yl)ethynyl)-5-methyl-4-oxo-2,3,4,5-tetrahydrobenzo[b][1,4]oxazepin-3-yl)picolinamide], the IC50 with U937 cells was determined as 2.9 nM; on RIPK1 (setting [1]), 10.5 nM; with L929 cells it was 275 nM.
On to `Cc1cccc(Oc2ccnc(C(=O)N[C@H]3COc4ccc(C#CC5(O)COC5)cc4N(C)C3=O)c2)n1` [I-131, (S)—N-(7-((3-hydroxyoxetan-3-yl)ethynyl)-5-methyl-4-oxo-2,3,4,5-tetrahydrobenzo[b][1,4]oxazepin-3-yl)-4-((6-methylpyridin-2-yl)oxy)picolinamide], for which the results for the IC50 with U937 cells, on RIPK1 (setting [1]) and with L929 cells were 263 nM, 24.5 nM and 2670 nM, respectively.
With `CN1C(=O)[C@@H](NC(=O)n2cc(Cc3cccnc3F)cn2)COc2ccc(C#CC3CCOCC3)cc21` [I-45, (S)-4-((2-Fluoropyridin-3-yl)methyl)-N-(5-methyl-4-oxo-7-((tetrahydro-2H-pyran-4-yl)ethynyl)-2,3,4,5-tetrahydrobenzo[b][1,4]oxazepin-3-yl)-1H-pyrazole-1-carboxamide], the half-inhibitory concentration (IC50) in the experiment on U937 cells came to 5.2 nM; at RIPK1 (setting [1]), 45 nM; in the experiment with L929 cells it was 512 nM.
As for `CN1C(=O)[C@@H](NC(=O)c2cc(Cn3cccn3)ccn2)COc2ccc(C#CC(C)(C)O)cc21` [I-71, (S)-4-((1H-pyrazol-1-yl)methyl)-N-(7-(3-hydroxy-3-methylbut-1-yn-1-yl)-5-methyl-4-oxo-2,3,4,5-tetrahydrobenzo[b][1,4]oxazepin-3-yl)picolinamide], the IC50 in the experiment on U937 cells was 549 nM; on RIPK1 (setting [1]), 87.8 nM; in the experiment with L929 cells it was 2150 nM.
Regarding `CN1C(=O)[C@@H](NC(=O)n2cc(Cc3cccc(F)n3)cn2)CCc2ccc(C#CC3(O)CCC3)cc21` [I-117, (S)-4-((6-Fluoropyridin-2-yl)methyl)-N-(8-((1-hydroxycyclobutyl)ethynyl)-1-methyl-2-oxo-2,3,4,5-tetrahydro-1H-benzo[b]azepin-3-yl)-1H-pyrazole-1-carboxamide], the values for the half-maximal inhibitory concentration (IC50) in the experiment on U937 cells, on RIPK1 and with L929 cells were 1.2 nM, 12.3 nM and 13.1 nM, respectively.
For the molecule `CN1C(=O)[C@@H](NC(=O)c2cc(Oc3cncc(F)c3)ccn2)COc2ccc(C#CC(C)(C)O)cc21` [I-60, (S)-4-((5-fluoropyridin-3-yl)oxy)-N-(7-(3-hydroxy-3-methylbut-1-yn-1-yl)-5-methyl-4-oxo-2,3,4,5-tetrahydrobenzo[b][1,4]oxazepin-3-yl)picolinamide], the concentration for half-maximal inhibition (IC50) in the experiment on U937 cells stood at 12.1 nM; at RIPK1 (setting [1]) it was 12.8 nM; in the experiment with L929 cells it was 4590 nM.
The like results for `CN1C(=O)[C@@H](NC(=O)c2cc(Oc3cccnc3F)ccn2)COc2ccc(C#CC3CCOCC3)cc21` [I-125, (S)-4-((2-fluoropyridin-3-yl)oxy)-N-(5-methyl-4-oxo-7-((tetrahydro-2H-pyran-4-yl)ethynyl)-2,3,4,5-tetrahydrobenzo[b][1,4]oxazepin-3-yl)picolinamide] were, in that order, 0.9 nM, 23.4 nM and 11.5 nM.
For the molecule `Cc1ccc(Cc2ccnc(C(=O)N[C@H]3COc4ccc(C#CC5(O)COC5)cc4N(C)C3=O)c2)cn1` [I-73, (S)—N-(7-((3-hydroxyoxetan-3-yl)ethynyl)-5-methyl-4-oxo-2,3,4,5-tetrahydrobenzo[b][1,4]oxazepin-3-yl)-4-((6-methylpyridin-3-yl)methyl)picolinamide], the IC50 came out at 91.7 nM in the experiment on U937 cells, 27.6 nM on RIPK1 (setting [1]) and 1950 nM with L929 cells.
